Measurements from PubChem BioAssay (NCI).
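Method: 48-hour compound exposure of cells in 96-well plates, five concentrations, linear interpolation of endpoints. TGI: concentration producing complete growth inhibition.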

What was measured:
Assay in all cases: NCI-60 cell line screen, 48 h
[1] = test system: RPMI-8226 leukemia
[2] = test system: SF-539 CNS
[3] = test system: MDA-MB-435
[4] = test system: K-562 leukemia
[5] = test system: NCI-H226 lung
[6] = test system: OVCAR-8 ovarian
[7] = test system: SN12C renal
[8] = test system: SNB-19 CNS
[9] = test system: NCI-H23 lung
[10] = test system: SK-MEL-2 melanoma
[11] = test system: OVCAR-4 ovarian
[12] = test system: M14 melanoma
[13] = test system: SF-295 CNS
[14] = test system: CCRF-CEM leukemia
[15] = test system: HT29 colon
[16] = test system: PC-3 prostate
[17] = test system: SK-OV-3 ovarian
[18] = test system: HCC-2998 colon
[19] = test system: BT-549 breast

Compound: COc1ccc(NS(=O)c2ccccc2OC)cc1 (centres undefined)
- TGI [1]: > 100 µM
- TGI [2]: 35.9 µM
- TGI [3]: > 100 µM
- TGI [4]: > 100 µM
- TGI [5]: 41.8 µM
- TGI [6]: > 100 µM
- TGI [7]: > 100 µM
- TGI [8]: > 100 µM
- TGI [9]: > 100 µM
- TGI [10]: 46.6 µM
- TGI [11]: > 100 µM
- TGI [12]: > 100 µM
- TGI [13]: > 100 µM
- TGI [14]: > 100 µM
- TGI [15]: > 100 µM

Compound: CC(=O)OC1CC[C@@]2(C)C(C1)CC(OC(C)=O)[C@@H]1C2CC(OC(C)=O)[C@]2(C)C(C(C)CC=C(c3ccc(Cl)cc3)c3ccc(Cl)cc3)CCC12 (some centres undefined)
- TGI [1]: 56.8 µM
- TGI [16]: > 100 µM
- TGI [17]: > 100 µM
- TGI [2]: > 100 µM
- TGI [3]: > 100 µM
- TGI [4]: > 100 µM
- TGI [6]: > 100 µM
- TGI [7]: > 100 µM
- TGI [8]: > 100 µM
- TGI [11]: > 100 µM
- TGI [18]: > 100 µM
- TGI [12]: > 100 µM
- TGI [13]: > 100 µM
- TGI [14]: 95.2 µM
- TGI [15]: > 100 µM

Compound: COC(=O)c1ccccc1NC(=O)C(=O)CC(=O)CC(c1ccccc1)c1c(O)c2ccccc2oc1=O (centres undefined)
- TGI [1]: > 100 µM
- TGI [17]: > 100 µM
- TGI [2]: > 100 µM
- TGI [6]: > 100 µM
- TGI [7]: > 100 µM
- TGI [8]: > 100 µM
- TGI [9]: > 100 µM
- TGI [10]: > 100 µM
- TGI [11]: > 100 µM
- TGI [18]: > 100 µM
- TGI [12]: > 100 µM
- TGI [13]: > 100 µM
- TGI [14]: > 100 µM
- TGI [15]: > 100 µM

Compound: CC1(C)CCCOc2cccc(c2)OCCCC(C)(C)C1=O
- TGI [1]: > 100 µM
- TGI [16]: > 100 µM
- TGI [17]: > 100 µM
- TGI [2]: > 100 µM
- TGI [3]: > 100 µM
- TGI [4]: > 100 µM
- TGI [5]: 82.9 µM
- TGI [7]: > 100 µM
- TGI [8]: > 100 µM
- TGI [9]: > 100 µM
- TGI [19]: 89.3 µM
- TGI [10]: 54.9 µM
- TGI [11]: > 100 µM
- TGI [12]: > 100 µM
- TGI [14]: 44.2 µM
- TGI [15]: 43.2 µM

Compound: O=C1CCCCC(=O)Nc2ccccc2N1
- TGI [1]: > 100 µM
- TGI [16]: > 100 µM
- TGI [17]: > 100 µM
- TGI [2]: > 100 µM
- TGI [3]: > 100 µM
- TGI [4]: > 100 µM
- TGI [5]: > 100 µM
- TGI [6]: > 100 µM
- TGI [7]: > 100 µM
- TGI [8]: > 100 µM
- TGI [9]: > 100 µM
- TGI [19]: > 100 µM
- TGI [10]: > 100 µM
- TGI [11]: > 100 µM
- TGI [12]: > 100 µM
- TGI [13]: > 100 µM
- TGI [14]: > 100 µM
- TGI [15]: > 100 µM

Compound: O=[N+]([O-])C(=C(Nc1ccccc1)Nc1ccccc1)/C(Cl)=C(\Cl)Br
- TGI [1]: 18.8 µM
- TGI [16]: 30.7 µM
- TGI [2]: 46 µM
- TGI [4]: 13.2 µM
- TGI [5]: 14.4 µM
- TGI [6]: 37 µM
- TGI [7]: 26.6 µM
- TGI [9]: 29.1 µM
- TGI [19]: 60.5 µM
- TGI [10]: 38.3 µM
- TGI [11]: 27.3 µM
- TGI [18]: 35 µM
- TGI [12]: 20.1 µM
- TGI [13]: 29.5 µM
- TGI [14]: 6.44 µM
- TGI [15]: 29.7 µM
